Patent US5008268A, “2-aminopyrimidinone derivatives” (Janssen Pharmaceutica N.V., priority 1989, dated 1991)

How the values were obtained:
Format in all cases: in vivo
[1] = tested on: compound 48/80-induced gastric lesions; experiment: Protection of rats from compound 48/80-induced gastric lesions (antiserotoninergic); conditions: Rattus norvegicus, dose at which stomach distention and glandular-area lesions are completely absent in half of the rats
From the text: (§1) Int. Pharmacodyn. Ther. 251, 39-51 (1981).
The ED50 values of the tested compounds are listed in the second column of table 4. Said ED50 values are the doses in mg per kg bodyweight at which the distention of the stomach as well as lesions in the glandular area of the stomach are completely absent in half of the test rats.

[2] = tested on: peripheral serotonin; experiment: Combined apomorphine, tryptamine and norepinephrine test in rats: tryptamine-induced hyperaemia of the ears; conditions: Rattus norvegicus, dose protecting half of tested animals from peripheral serotonin-induced phenomena, in particular hyperaemia of the ears
From the text: as §1
Pharmacodyn, 227, 238-253 (1977). Said test provides an empirical evaluation of the relative specificity with which drugs may effect particular neurotransmitters centrally (CNS) as well as peripherally. […] The ED50 values of the tested compounds are listed in column 3 of table 4 and represent the dose in mg per kg bodyweight which protects half of the tested animals from peripheral serotonin-induced phenomena, in particular hyperaemia of the ears.

[3] = tested on: compound 48/80-induced lethality; experiment: Protection of rats from compound 48/80-induced lethality (antihistaminic); conditions: Rattus norvegicus, dose protecting 50% of tested animals against compound 48/80-induced lethality
From the text: as §1
The ED50 values of the tested compounds of formula (I) are listed in the first column of table 4. Said ED50 values are the values in mg per kg bodyweight at which the tested compounds protect 50% of the tested animals against compound 48/80-induced lethality.

| Compound | ED50 [1] [mg/kg] | ED50 [2] [mg/kg] | ED50 [3] [mg/kg] |
| --- | --- | --- | --- |
| Cc1ccc(Cn2c(NC3CCN(CCc4c(C)nc(NCc5ccccc5)n(C)c4=O)CC3)nc3cccnc32)o1 [Compound 3] | 0.08 | 0.005 |  |
| Cc1nc(N)n(C)c(=O)c1CCN1CCC(Nc2nc3ccccc3n2Cc2ccc(F)cc2)CC1 [Compound 7] | 0.02 | 0.01 |  |
| Cc1nc(N)n(C)c(=O)c1CCN1CCC(Cc2nc3ccccc3n2Cc2ccc(F)cc2)CC1 [Compound 11, 2-amino-5-[2-[4-[[1-[(4-fluorophenyl)methyl]-1H-benzimidazol-2-yl]-methyl]-1-piperidinyl]ethyl]-3,6-dimethyl-4(3H)pyrimidinone] | 0.16 | 0.005 | 0.02 |
| Cc1nc(N)n(C)c(=O)c1CCN1CCC(Nc2nc3ccccc3n2Cc2ccc(CO)o2)CC1 [Compound 15, 2-amino-5-[2-[4-[[1-[[5-hydroxymethyl-2-furanyl]methyl]-1H-benzimidazol-2-yl]amino]-1-piperidinyl]ethyl]-3,6-dimethyl-4(3H)-pyrimidinone] | 0.005 | 0.002 | 0.02 |
| Cc1nc(N)n(C)c(=O)c1CCN1CCC(Nc2nc3cccnc3n2Cc2ccc(CO)o2)CC1 [Compound 16] | 0.16 | 0.005 | 0.01 |
| CNc1nc(C)c(CCN2CCC(Nc3nc4ccccc4n3Cc3ccc(CO)o3)CC2)c(=O)n1C [Compound 17, 5-[2-[4-[[1-[[5-(hydroxymethyl)-2-furanyl]methyl]-1H-benzimidazol-2-yl]amino]-1-piperidinyl]ethyl]-3,6-dimethyl-2(methylamino)-4(3H)-pyrimidinone] | 0.01 | 0.002 | 0.02 |
| Cc1nc(NCc2ccccn2)n(C)c(=O)c1CCN1CCC(Cc2nc3ccccc3n2Cc2ccc(F)cc2)CC1 [Compound 21] | 0.08 | 0.01 | 0.04 |
| CCNc1nc(C)c(CCN2CCC(Nc3nc4ccccc4n3Cc3ccc(CO)o3)CC2)c(=O)n1C [Compound 29] | 0.16 | 0.005 | 0.08 |
| CCOCCNc1nc(C)c(CCN2CCC(Nc3nc4ccccc4n3Cc3ccc(CO)o3)CC2)c(=O)n1C [Compound 30] | 0.02 | 0.02 | 0.04 |
| CCCCNc1nc(C)c(CCN2CCC(Nc3nc4cccnc4n3Cc3ccc(C)o3)CC2)c(=O)n1C [Compound 34] | 0.08 | 0.02 | 0.04 |
| Cc1nc(NCc2ccccn2)n(C)c(=O)c1CCN1CCC(Nc2nc3ccccc3n2Cc2ccc(CO)o2)CC1 [Compound 39] | 0.04 | 0.005 | 0.08 |
| CCCNc1nc(C)c(CCN2CCC(Nc3nc4ccccc4n3Cc3ccc(CO)o3)CC2)c(=O)n1C [Compound 43, 5-[2-[4-[[1-[[5-(hydroxymethyl)-2-furanyl]methyl]-1H-benzimidazol-2-yl]amino]-1-piperidinyl]ethyl]-3,6-dimethyl-2-(propylamino)-4(3H)-pyrimidinone] | 0.04 | 0.005 | 0.08 |
| Cc1nc2n(C)c(C)cn2c(=O)c1CCN1CCC(Cc2nc3ccccc3n2Cc2ccc(F)cc2)CC1 [Compound 50] | 0.16 | 0.02 | 0.04 |
| CC1=NN(C)c2nc(C)c(CCN3CCC(Cc4nc5ccccc5n4Cc4ccc(F)cc4)CC3)c(=O)n2C1 [Compound 58] | 0.16 | 0.02 | 0.04 |
| Cc1ccc(Cn2c(NC3CCN(CCc4c(C)nc5n(C)nc(C)n5c4=O)CC3)nc3cccnc32)o1 [Compound 67] | 0.08 | 0.08 | 0.04 |
| Cc1nc2n(C)ccn2c(=O)c1CCN1CCC(Nc2nc3ccccc3n2Cc2ccc(CO)o2)CC1 [Compound 68] | 0.04 | 0.04 |  |
| Cc1nc2n(C)c(C)cn2c(=O)c1CCN1CCC(Nc2nc3ccccc3n2Cc2ccc(CO)o2)CC1 [Compound 71] | 0.04 | 0.01 |  |
| Cc1nc2n(C)ccn2c(=O)c1CCN1CCC(Cc2nc3ccccc3n2Cc2ccc(CO)o2)CC1 [Compound 79] | 0.04 | 0.02 |  |
| Cc1nc2ccccn2c(=O)c1CCN1CCC(Nc2nc3cccnc3n2Cc2ccco2)CC1 [reference, 3-[2-[4-[[3-(2-furanylmethyl)-3H-imidazo[4,5-b]pyridin-2-yl]amino]-1-piperidinyl]ethyl]-2-methyl-4H-pyrido[1,2-a]pyrimidin-4-one, reference compound] | 0.63 | 0.63 | 0.08 |
